{"source": "paper PMC5560747", "about": "“Computational-experimental approach to drug-target interaction mapping: A case study on kinase inhibitors” (PLoS Computational Biology, 2017)", "key": {"MAP4K2": {"test_system": "MAP4K2", "design": "method as in Gao et al. [42]", "conditions": "ref Gao et al. [42], cited from earlier work"}, "GSK3A": {"test_system": "GSK3A", "design": "method as in Gao et al. [42]", "conditions": "ref Gao et al. [42], cited from earlier work"}, "ROCK1": {"test_system": "ROCK1", "design": "method as in Gao et al. [42]", "conditions": "ref Gao et al. [42], cited from earlier work"}, "JAK3": {"biological_target": "JAK3 (Homo sapiens, UniProt P52333)", "sequence (P52333 whole entry)": "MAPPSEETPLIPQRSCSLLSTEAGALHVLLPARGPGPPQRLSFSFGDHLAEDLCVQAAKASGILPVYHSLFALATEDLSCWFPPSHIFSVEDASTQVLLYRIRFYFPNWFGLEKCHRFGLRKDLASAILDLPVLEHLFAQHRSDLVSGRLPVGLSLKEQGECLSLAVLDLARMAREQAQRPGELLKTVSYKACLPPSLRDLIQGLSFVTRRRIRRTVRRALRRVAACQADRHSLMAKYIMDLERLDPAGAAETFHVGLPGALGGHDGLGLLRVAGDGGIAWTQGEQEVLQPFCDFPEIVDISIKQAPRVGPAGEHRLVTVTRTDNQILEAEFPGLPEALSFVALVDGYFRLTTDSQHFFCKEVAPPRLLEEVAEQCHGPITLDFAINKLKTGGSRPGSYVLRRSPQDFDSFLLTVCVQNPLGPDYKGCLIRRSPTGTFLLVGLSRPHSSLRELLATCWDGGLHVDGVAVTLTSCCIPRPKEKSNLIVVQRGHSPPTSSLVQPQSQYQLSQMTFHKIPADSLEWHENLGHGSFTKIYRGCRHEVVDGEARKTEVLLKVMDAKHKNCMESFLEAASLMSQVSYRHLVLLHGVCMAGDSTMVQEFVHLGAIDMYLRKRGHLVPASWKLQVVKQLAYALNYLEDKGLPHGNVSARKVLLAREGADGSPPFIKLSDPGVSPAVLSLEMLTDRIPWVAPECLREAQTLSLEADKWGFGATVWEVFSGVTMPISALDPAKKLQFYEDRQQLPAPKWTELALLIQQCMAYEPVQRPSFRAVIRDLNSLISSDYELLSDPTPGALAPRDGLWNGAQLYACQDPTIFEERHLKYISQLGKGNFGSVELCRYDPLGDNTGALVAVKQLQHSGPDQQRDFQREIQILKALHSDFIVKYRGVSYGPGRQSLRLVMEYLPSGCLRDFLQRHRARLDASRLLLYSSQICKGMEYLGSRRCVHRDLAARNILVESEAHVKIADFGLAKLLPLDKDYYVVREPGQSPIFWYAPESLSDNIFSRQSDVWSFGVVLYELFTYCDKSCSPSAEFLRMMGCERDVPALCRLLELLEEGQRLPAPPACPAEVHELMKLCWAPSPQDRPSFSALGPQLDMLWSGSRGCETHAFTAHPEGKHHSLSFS", "design": "method as in Gao et al. [42]", "conditions": "ref Gao et al. [42], cited from earlier work"}, "BTK": {"biological_target": "BTK (Homo sapiens, UniProt Q06187)", "sequence (Q06187 whole entry)": "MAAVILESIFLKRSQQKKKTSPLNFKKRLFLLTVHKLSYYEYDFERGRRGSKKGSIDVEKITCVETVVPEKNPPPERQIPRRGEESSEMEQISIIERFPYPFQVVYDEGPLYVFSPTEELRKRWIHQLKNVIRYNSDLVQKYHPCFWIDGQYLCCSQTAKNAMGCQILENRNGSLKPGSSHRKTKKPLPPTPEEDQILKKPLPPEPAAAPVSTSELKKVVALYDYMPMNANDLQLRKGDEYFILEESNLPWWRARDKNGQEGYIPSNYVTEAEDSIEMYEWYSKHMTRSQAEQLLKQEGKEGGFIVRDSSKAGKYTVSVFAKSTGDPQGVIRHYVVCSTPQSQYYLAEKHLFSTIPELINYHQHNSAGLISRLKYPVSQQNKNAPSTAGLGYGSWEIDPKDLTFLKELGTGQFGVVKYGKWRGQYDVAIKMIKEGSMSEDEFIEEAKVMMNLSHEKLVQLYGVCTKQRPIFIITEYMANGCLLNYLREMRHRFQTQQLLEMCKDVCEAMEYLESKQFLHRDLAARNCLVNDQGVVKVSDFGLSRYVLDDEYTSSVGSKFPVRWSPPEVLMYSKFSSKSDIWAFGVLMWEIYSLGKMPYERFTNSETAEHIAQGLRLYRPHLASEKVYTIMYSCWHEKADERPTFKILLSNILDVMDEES", "design": "method as in Gao et al. [42]", "conditions": "ref Gao et al. [42], cited from earlier work"}, "SGK1": {"test_system": "SGK1", "design": "method as in Gao et al. [42]", "conditions": "ref Gao et al. [42], cited from earlier work"}, "CHUK": {"test_system": "CHUK", "design": "method as in Gao et al. [42]", "conditions": "ref Gao et al. [42], cited from earlier work"}, "PRKD2": {"test_system": "PRKD2", "design": "method as in Gao et al. [42]", "conditions": "ref Gao et al. [42], cited from earlier work"}, "STK24": {"test_system": "STK24", "design": "method as in Gao et al. [42]", "conditions": "ref Gao et al. [42], cited from earlier work"}, "Aurora A": {"biological_target": "T1, Aurora A (Homo sapiens, UniProt O14965)", "T1 construct": "purchased SignalChem A28-18G-10", "T1 sequence (O14965 1-403)": "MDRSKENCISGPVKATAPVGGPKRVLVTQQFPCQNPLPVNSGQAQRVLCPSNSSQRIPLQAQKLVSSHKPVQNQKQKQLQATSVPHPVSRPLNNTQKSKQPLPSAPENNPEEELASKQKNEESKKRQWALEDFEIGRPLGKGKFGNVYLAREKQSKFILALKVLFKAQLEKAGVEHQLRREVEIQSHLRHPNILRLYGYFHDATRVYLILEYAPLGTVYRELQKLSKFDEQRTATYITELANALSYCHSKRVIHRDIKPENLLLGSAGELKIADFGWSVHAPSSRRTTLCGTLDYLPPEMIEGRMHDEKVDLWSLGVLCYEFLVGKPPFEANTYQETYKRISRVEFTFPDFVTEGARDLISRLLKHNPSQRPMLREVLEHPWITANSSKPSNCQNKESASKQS", "assay": "ADP-Glo Kinase Assay, tivozanib off-target testing", "type": "biochemical", "conditions": "read-out: Experimental validation pIC50 (converted)", "description": "The kinase inhibitors were dissolved to 1X Kinase Buffer with 5% DMSO by transferring 200nL of the buffer using ECHO525 Liquid handler (Labcyte). […] The dissolved kinases and 2.5X kinase buffer controls were transferred at 400nL using ECHO525. […] The 2.5X ATP/substrate working stocks were transferred at 400nL using ECHO525.\nFor the ADP detection, 1 μl ADP-Glo reagent was dispensed (Thermo Scientific Multidrop Combi nL). […] Next, 2 μl kinase detection reagent was dispensed with Thermo Scientific Multidrop Combi nL.\nKinase assay, kinase dilution and substrate buffers were as indicated by the manufacturer (Promega). The assays were performed in the same way as with the kinases from the Kinase Selectivity Profiling System + ADP-Glo Assay kits (see previous section). All the assays were done in three individual experiments, each having three replicates.\nIC50 values from all the experiments were obtained with GraphPad Prism 7 (GraphPad Software, Inc. California, USA) using inhibitor vs. response—variable slope (four parameters) analysis. […] X-axis scale was set to log10."}, "MAPK13": {"test_system": "MAPK13", "design": "method as in Gao et al. [42]", "conditions": "ref Gao et al. [42], cited from earlier work"}, "PIM3": {"test_system": "PIM3", "design": "method as in Gao et al. [42]", "conditions": "ref Gao et al. [42], cited from earlier work"}, "TAOK1": {"test_system": "TAOK1", "design": "method as in Gao et al. [42]", "conditions": "ref Gao et al. [42], cited from earlier work"}, "RPS6KB1": {"biological_target": "T2, RPS6KB1 (Homo sapiens, UniProt P23443)", "T2 construct": "purchased SignalChem R21-10H-10", "T2 sequence (P23443 whole entry)": "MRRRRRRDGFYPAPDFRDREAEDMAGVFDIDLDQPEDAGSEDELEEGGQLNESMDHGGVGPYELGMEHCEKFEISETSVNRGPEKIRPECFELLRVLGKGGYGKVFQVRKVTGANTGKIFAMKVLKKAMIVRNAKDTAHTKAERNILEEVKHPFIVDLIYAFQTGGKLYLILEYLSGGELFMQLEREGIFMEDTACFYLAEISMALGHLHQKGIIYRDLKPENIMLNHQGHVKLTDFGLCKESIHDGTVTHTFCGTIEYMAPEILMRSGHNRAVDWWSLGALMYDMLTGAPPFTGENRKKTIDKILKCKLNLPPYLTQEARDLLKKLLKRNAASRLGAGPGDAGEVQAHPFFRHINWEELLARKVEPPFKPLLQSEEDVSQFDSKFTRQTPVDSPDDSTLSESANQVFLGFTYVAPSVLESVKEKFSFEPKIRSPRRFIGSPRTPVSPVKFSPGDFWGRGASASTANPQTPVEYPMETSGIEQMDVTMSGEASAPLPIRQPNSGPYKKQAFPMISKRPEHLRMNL", "design": "method as in Gao et al. [42]", "conditions": "ref Gao et al. [42], cited from earlier work"}, "LYN B": {"biological_target": "LYN B (Homo sapiens, UniProt P07948)", "sequence (P07948 1-491 isoform P07948-2)": "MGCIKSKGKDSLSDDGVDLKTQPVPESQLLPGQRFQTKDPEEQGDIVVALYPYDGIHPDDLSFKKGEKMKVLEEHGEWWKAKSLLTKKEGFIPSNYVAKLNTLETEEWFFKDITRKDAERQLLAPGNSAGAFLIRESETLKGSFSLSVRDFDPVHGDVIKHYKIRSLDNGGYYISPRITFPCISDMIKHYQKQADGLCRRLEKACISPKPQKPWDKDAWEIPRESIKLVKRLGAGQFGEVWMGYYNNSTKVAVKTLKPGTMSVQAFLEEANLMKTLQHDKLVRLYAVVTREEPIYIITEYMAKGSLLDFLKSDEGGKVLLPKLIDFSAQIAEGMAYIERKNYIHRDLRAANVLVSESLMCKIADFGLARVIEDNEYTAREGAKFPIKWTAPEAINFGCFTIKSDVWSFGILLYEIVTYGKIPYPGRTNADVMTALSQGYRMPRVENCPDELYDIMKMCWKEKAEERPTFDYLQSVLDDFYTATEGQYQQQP", "design": "method as in Gao et al. [42]", "conditions": "ref Gao et al. [42], cited from earlier work"}, "CLK2": {"test_system": "CLK2", "design": "method as in Gao et al. [42]", "conditions": "ref Gao et al. [42], cited from earlier work"}, "STK17A": {"test_system": "STK17A", "design": "method as in Gao et al. [42]", "conditions": "ref Gao et al. [42], cited from earlier work"}, "PKCa": {"test_system": "PKCa", "design": "method as in Gao et al. [42]", "conditions": "ref Gao et al. [42], cited from earlier work"}, "TSSK2": {"test_system": "TSSK2", "design": "method as in Gao et al. [42]", "conditions": "ref Gao et al. [42], cited from earlier work"}, "TRKA": {"biological_target": "TRKA (Homo sapiens, UniProt P04629)", "sequence (P04629 33-796)": "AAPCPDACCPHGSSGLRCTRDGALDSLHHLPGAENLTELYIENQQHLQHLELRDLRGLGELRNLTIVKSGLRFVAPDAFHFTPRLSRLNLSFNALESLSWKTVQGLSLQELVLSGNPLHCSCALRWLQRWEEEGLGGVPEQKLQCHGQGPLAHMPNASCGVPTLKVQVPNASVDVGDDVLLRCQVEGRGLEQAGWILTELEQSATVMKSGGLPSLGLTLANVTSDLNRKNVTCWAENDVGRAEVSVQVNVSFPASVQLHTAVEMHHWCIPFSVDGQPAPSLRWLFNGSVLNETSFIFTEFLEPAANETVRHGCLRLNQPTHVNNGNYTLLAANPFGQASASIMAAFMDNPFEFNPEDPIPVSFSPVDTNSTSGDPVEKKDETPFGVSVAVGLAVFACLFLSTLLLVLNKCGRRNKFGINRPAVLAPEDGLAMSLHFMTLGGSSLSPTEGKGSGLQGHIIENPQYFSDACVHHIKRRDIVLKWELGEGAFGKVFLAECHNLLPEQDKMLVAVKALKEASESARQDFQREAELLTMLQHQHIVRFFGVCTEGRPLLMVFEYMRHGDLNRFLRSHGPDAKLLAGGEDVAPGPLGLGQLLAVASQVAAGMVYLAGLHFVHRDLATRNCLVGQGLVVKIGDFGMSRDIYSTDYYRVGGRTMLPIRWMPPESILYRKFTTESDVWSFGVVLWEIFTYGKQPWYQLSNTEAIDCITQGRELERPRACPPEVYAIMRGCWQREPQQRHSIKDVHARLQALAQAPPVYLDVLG", "design": "method as in Gao et al. [42]", "conditions": "ref Gao et al. [42], cited from earlier work"}}, "data": [{"smiles": "COc1cc2nccc(Oc3ccc(NC(=O)Nc4cc(C)on4)c(Cl)c3)c2cc1OC", "note": "[TIVOZANIB, Tivozanib]", "values": [{"measurement": "Gao et al. % of activity remaining at 1 µM", "setting": "MAP4K2; 1 µM", "value": 47, "unit": "%"}, {"measurement": "Gao et al. % of activity remaining at 10 µM", "setting": "MAP4K2; 10 µM", "value": 17, "unit": "%"}, {"measurement": "Gao et al. % of activity remaining at 1 µM", "setting": "GSK3A; 1 µM", "value": 107, "unit": "%"}, {"measurement": "Gao et al. % of activity remaining at 10 µM", "setting": "GSK3A; 10 µM", "value": 123, "unit": "%"}, {"measurement": "Gao et al. % of activity remaining at 1 µM", "setting": "ROCK1; 1 µM", "value": 113, "unit": "%"}, {"measurement": "Gao et al. % of activity remaining at 10 µM", "setting": "ROCK1; 10 µM", "value": 112, "unit": "%"}, {"measurement": "Gao et al. % of activity remaining at 1 µM", "setting": "JAK3; 1 µM", "value": 100, "unit": "%"}, {"measurement": "Gao et al. % of activity remaining at 10 µM", "setting": "JAK3; 10 µM", "value": 48, "unit": "%"}, {"measurement": "Gao et al. % of activity remaining at 1 µM", "setting": "BTK; 1 µM", "value": 50, "unit": "%"}, {"measurement": "Gao et al. % of activity remaining at 10 µM", "setting": "BTK; 10 µM", "value": 10, "unit": "%"}, {"measurement": "Gao et al. % of activity remaining at 1 µM", "setting": "SGK1; 1 µM", "value": 83, "unit": "%"}, {"measurement": "Gao et al. % of activity remaining at 10 µM", "setting": "SGK1; 10 µM", "value": 64, "unit": "%"}, {"measurement": "Gao et al. % of activity remaining at 1 µM", "setting": "CHUK; 1 µM", "value": 91, "unit": "%"}, {"measurement": "Gao et al. % of activity remaining at 10 µM", "setting": "CHUK; 10 µM", "value": 114, "unit": "%"}, {"measurement": "Gao et al. % of activity remaining at 1 µM", "setting": "PRKD2; 1 µM", "value": 95, "unit": "%"}, {"measurement": "Gao et al. % of activity remaining at 10 µM", "setting": "PRKD2; 10 µM", "value": 103, "unit": "%"}, {"measurement": "Gao et al. % of activity remaining at 1 µM", "setting": "STK24; 1 µM", "value": 118, "unit": "%"}, {"measurement": "Gao et al. % of activity remaining at 10 µM", "setting": "STK24; 10 µM", "value": 78, "unit": "%"}, {"measurement": "IC50", "setting": "Aurora A", "value": "> 12.5", "unit": "µM"}, {"measurement": "Gao et al. % of activity remaining at 1 µM", "setting": "MAPK13; 1 µM", "value": 114, "unit": "%"}, {"measurement": "Gao et al. % of activity remaining at 10 µM", "setting": "MAPK13; 10 µM", "value": 97, "unit": "%"}, {"measurement": "Gao et al. % of activity remaining at 1 µM", "setting": "PIM3; 1 µM", "value": 107, "unit": "%"}, {"measurement": "Gao et al. % of activity remaining at 10 µM", "setting": "PIM3; 10 µM", "value": 105, "unit": "%"}, {"measurement": "Gao et al. % of activity remaining at 1 µM", "setting": "TAOK1; 1 µM", "value": 91, "unit": "%"}, {"measurement": "Gao et al. % of activity remaining at 10 µM", "setting": "TAOK1; 10 µM", "value": 52, "unit": "%"}, {"measurement": "Gao et al. % of activity remaining at 1 µM", "setting": "RPS6KB1; 1 µM", "value": 76, "unit": "%"}, {"measurement": "Gao et al. % of activity remaining at 10 µM", "setting": "RPS6KB1; 10 µM", "value": 53, "unit": "%"}, {"measurement": "Gao et al. % of activity remaining at 1 µM", "setting": "LYN B; 1 µM", "value": -1, "unit": "%"}, {"measurement": "Gao et al. % of activity remaining at 10 µM", "setting": "LYN B; 10 µM", "value": 2, "unit": "%"}, {"measurement": "Gao et al. % of activity remaining at 1 µM", "setting": "CLK2; 1 µM", "value": 114, "unit": "%"}, {"measurement": "Gao et al. % of activity remaining at 10 µM", "setting": "CLK2; 10 µM", "value": 99, "unit": "%"}, {"measurement": "Gao et al. % of activity remaining at 1 µM", "setting": "STK17A; 1 µM", "value": 116, "unit": "%"}, {"measurement": "Gao et al. % of activity remaining at 10 µM", "setting": "STK17A; 10 µM", "value": 87, "unit": "%"}, {"measurement": "Gao et al. % of activity remaining at 1 µM", "setting": "PKCa; 1 µM", "value": 108, "unit": "%"}, {"measurement": "Gao et al. % of activity remaining at 10 µM", "setting": "PKCa; 10 µM", "value": 101, "unit": "%"}, {"measurement": "Gao et al. % of activity remaining at 1 µM", "setting": "TSSK2; 1 µM", "value": 90, "unit": "%"}, {"measurement": "Gao et al. % of activity remaining at 10 µM", "setting": "TSSK2; 10 µM", "value": 78, "unit": "%"}, {"measurement": "Gao et al. % of activity remaining at 1 µM", "setting": "TRKA; 1 µM", "value": 2, "unit": "%"}, {"measurement": "Gao et al. % of activity remaining at 10 µM", "setting": "TRKA; 10 µM", "value": 0, "unit": "%"}]}]}
